Test results from US10435399B2, “HDAC6 inhibitory heterocyclic compound” (TAKEDA PHARMACEUTICAL COMPANY LIMITED, priority 2017, dated 2019).

Biological target: T1, HDAC6 enzyme (Homo sapiens, UniProt Q9UBN7)
T1 construct: transducing full length HDAC6 gene into Sf-9 insect cells; GST; purchased SignalChem; host or cells: Sf-9 insect cells
T1 sequence (Q9UBN7 1-1215): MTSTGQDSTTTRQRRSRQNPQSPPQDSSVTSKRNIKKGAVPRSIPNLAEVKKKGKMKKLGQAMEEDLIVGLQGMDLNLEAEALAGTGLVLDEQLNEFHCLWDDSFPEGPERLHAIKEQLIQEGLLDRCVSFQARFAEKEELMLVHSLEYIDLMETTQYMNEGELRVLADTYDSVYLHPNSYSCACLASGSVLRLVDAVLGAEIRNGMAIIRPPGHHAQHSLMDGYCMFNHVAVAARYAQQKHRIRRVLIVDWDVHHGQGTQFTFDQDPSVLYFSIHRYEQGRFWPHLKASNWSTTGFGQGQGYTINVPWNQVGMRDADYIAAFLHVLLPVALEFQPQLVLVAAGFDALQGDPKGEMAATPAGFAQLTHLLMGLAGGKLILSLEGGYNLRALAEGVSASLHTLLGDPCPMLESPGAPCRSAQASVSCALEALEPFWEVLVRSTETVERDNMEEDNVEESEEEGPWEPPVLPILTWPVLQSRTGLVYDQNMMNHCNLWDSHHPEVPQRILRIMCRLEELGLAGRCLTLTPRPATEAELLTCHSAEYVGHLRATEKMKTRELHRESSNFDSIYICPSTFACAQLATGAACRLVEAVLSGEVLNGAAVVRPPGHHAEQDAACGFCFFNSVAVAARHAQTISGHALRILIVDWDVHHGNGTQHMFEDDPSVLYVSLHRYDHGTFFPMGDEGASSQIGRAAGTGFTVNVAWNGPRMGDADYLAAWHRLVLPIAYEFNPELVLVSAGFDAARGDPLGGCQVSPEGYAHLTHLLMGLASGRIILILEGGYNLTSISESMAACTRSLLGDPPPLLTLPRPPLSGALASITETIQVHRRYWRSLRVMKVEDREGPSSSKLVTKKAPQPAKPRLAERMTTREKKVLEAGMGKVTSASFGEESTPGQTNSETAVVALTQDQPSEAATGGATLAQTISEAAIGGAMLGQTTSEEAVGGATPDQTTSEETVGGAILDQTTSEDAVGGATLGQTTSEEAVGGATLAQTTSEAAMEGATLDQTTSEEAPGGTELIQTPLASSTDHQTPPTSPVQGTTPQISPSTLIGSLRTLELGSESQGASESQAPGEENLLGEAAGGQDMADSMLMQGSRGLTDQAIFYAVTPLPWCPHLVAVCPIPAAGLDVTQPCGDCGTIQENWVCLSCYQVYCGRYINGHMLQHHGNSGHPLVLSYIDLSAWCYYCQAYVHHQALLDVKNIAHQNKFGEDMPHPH
Test: HDAC6 enzyme inhibitory activity (HDAC-Glo I/II Assay kit)
Type: biochemical
Conditions: 10 μM; wells without enzyme = 100% inhibition; read-out: HDAC6 inhibitory rate (%) (10 μM)
Method in brief: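 Sf-9-derived GST-purified full-length HDAC6 + cpd, 60 min RT, 24 mM Tris pH 7.5/0.6 mM glutathione/0.01% Tween-20; add HDAC-Glo substrate-developer, 20 min RT; luminescence. No-enzyme = 100% inhibition.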

| Compound | inhibition at 10 µM [%] |
| --- | --- |
| O=C1OCCCN1[C@@H]1CCCC[C@H]1N1Cc2ccc(-c3nnc(C(F)F)o3)cc2C1=O [Example 21, 6-(5-(difluoromethyl)-1,3,4-oxadiazol-2-yl)-2-((1R,2R)-2-(2-oxo-1,3-oxazinan-3-yl)cyclohexyl)isoindolin-1-one] | 100 |
| O=C1OCCN1[C@@H]1CCCC[C@H]1N1Cc2ccc(-c3nnc(C(F)F)o3)cc2C1=O [Example 22, 6-(5-(difluoromethyl)-1,3,4-oxadiazol-2-yl)-2-((1R,2R)-2-(2-oxo-1,3-oxazolidin-3-yl)cyclohexyl)isoindolin-1-one] | 98 |
| O=C1c2cc(-c3nnc(C(F)F)o3)ccc2CN1[C@@H]1CCCC[C@H]1NC(=O)C1(C(F)F)CC1 [Example 23, 1-(difluoromethyl)-N-((1R,2R)-2-(6-(5-(difluoromethyl)-1,3,4-oxadiazol-2-yl)-1-oxo-1,3-dihydro-2H-isoindol-2-yl)cyclohexyl)cyclopropanecarboxamide] | 99 |
| O=C1c2cc(-c3nnc(C(F)F)o3)ccc2CN1[C@@H]1CCCC[C@H]1NC(=O)C1(C(F)(F)F)CCC1 [Example 24, N-((1R,2R)-2-(6-(5-(difluoromethyl)-1,3,4-oxadiazol-2-yl)-1-oxo-1,3-dihydro-2H-isoindol-2-yl)cyclohexyl)-1-(trifluoromethyl)cyclobutanecarboxamide] | 98 |
| COC1(C(=O)N[C@@H]2CCCC[C@H]2N2Cc3ccc(-c4nnc(C(F)F)o4)cc3C2=O)CCC1 [Example 25, N-((1R,2R)-2-(6-(5-(difluoromethyl)-1,3,4-oxadiazol-2-yl)-1-oxo-1,3-dihydro-2H-isoindol-2-yl)cyclohexyl)-1-methoxycyclobutanecarboxamide] | 99 |
| O=C(CC1(O)CCCC1)N[C@@H]1CCCC[C@H]1N1Cc2ccc(-c3nnc(C(F)F)o3)cc2C1=O [Example 26, N-((1R,2R)-2-(6-(5-(difluoromethyl)-1,3,4-oxadiazol-2-yl)-1-oxo-1,3-dihydro-2H-isoindol-2-yl)cyclohexyl)-2-(1-hydroxycyclopentyl)acetamide] | 98 |
| O=C(N[C@@H]1CCCC[C@H]1N1Cc2ccc(-c3nnc(C(F)F)o3)cc2C1=O)c1cocn1 [Example 27, N-((1R,2R)-2-(6-(5-(difluoromethyl)-1,3,4-oxadiazol-2-yl)-1-oxo-1,3-dihydro-2H-isoindol-2-yl)cyclohexyl)-1,3-oxazole-4-carboxamide] | 100 |
| O=C(N[C@@H]1CCCC[C@H]1N1Cc2ccc(-c3nnc(C(F)F)o3)cc2C1=O)C(F)F [Example 28, N-((1R,2R)-2-(6-(5-(difluoromethyl)-1,3,4-oxadiazol-2-yl)-1-oxo-1,3-dihydro-2H-isoindol-2-yl)cyclohexyl)-2,2-difluoroacetamide] | 100 |
| O=C1c2cc(-c3nnc(C(F)F)o3)ccc2CN1[C@@H]1CCCC[C@H]1NC(=O)C(F)(F)C(F)(F)F [Example 29, N-((1R,2R)-2-(6-(5-(difluoromethyl)-1,3,4-oxadiazol-2-yl)-1-oxo-1,3-dihydro-2H-isoindol-2-yl)cyclohexyl)-2,2,3,3,3-pentafluoropropanamide] | 101 |
| O=C1COCCN1[C@@H]1CCCC[C@H]1N1Cc2ccc(-c3nnc(C(F)F)o3)cc2C1=O [Example 30, 6-(5-(difluoromethyl)-1,3,4-oxadiazol-2-yl)-2-((1R,2R)-2-(3-oxomorpholin-4-yl)cyclohexyl) isoindolin-1-one] | 97 |
| O=C1NCCCN1[C@@H]1CCCC[C@H]1N1Cc2ccc(-c3nnc(C(F)F)o3)cc2C1=O [Example 31, 6-(5-(difluoromethyl)-1,3,4-oxadiazol-2-yl)-2-((1R,2R)-2-(2-oxotetrahydropyrimidin-1(2H)-yl)cyclohexyl) isoindolin-1-one] | 97 |
| O=C1c2cc(-c3nnc(C(F)F)o3)ccc2CN1[C@@H]1CCCC[C@H]1NC(=O)C1(C(F)(F)F)CC1 [Example 32, N-((1R,2R)-2-(6-(5-(difluoromethyl)-1,3,4-oxadiazol-2-yl)-1-oxo-1,3-dihydro-2H-isoindol-2-yl)cyclohexyl)-1-(trifluoromethyl)cyclopropanecarboxamide] | 101 |
| O=C(N[C@@H]1CCCC[C@H]1N1Cc2ccc(-c3nnc(C(F)F)o3)cc2C1=O)C1CC(F)(F)C1 [Example 33, N-((1R,2R)-2-(6-(5-(difluoromethyl)-1,3,4-oxadiazol-2-yl)-1-oxo-1,3-dihydro-2H-isoindol-2-yl)cyclohexyl)-3,3-difluorocyclobutanecarboxamide] | 97 |
| CC(C)(C)OC(=O)N1CCCC[C@@H]1CN1Cc2ccc(-c3nnc(C(F)F)o3)cc2C1=O [Example 34, tert-butyl (2R)-2-((6-(5-(difluoromethyl)-1,3,4-oxadiazol-2-yl)-1-oxo-1,3-dihydro-2H-isoindol-2-yl)methyl)piperidine-1-carboxylate] | 98 |
| CC(C)(C)OC(=O)N1CCOC[C@@H]1CN1Cc2ccc(-c3nnc(C(F)F)o3)cc2C1=O [Example 35, tert-butyl (3S)-3-((6-(5-(difluoromethyl)-1,3,4-oxadiazol-2-yl)-1-oxo-1,3-dihydro-2H-isoindol-2-yl)methyl)morpholine-4-carboxylate] | 97 |
| O=C1c2cc(-c3nnc(C(F)F)o3)ccc2CN1C[C@H]1COCCN1 [Example 36, 6-(5-(difluoromethyl)-1,3,4-oxadiazol-2-yl)-2-((3S)-morpholin-3-ylmethyl)isoindolin-1-one] | 85 |
| O=C1CCCN1c1ccccc1N1Cc2ccc(-c3nnc(C(F)F)o3)cc2C1=O [Example 37, 6-(5-(difluoromethyl)-1,3,4-oxadiazol-2-yl)-2-(2-(2-oxopyrrolidin-1-yl)phenyl)isoindolin-1-one] | 99 |
| N[C@@H]1CCCC[C@H]1N1Cc2ccc(-c3nnc(C(F)F)o3)cc2C1=O [Example 38, 2-((1R,2R)-2-aminocyclohexyl)-6-(5-(difluoromethyl)-1,3,4-oxadiazol-2-yl)isoindolin-1-one] | 91 |
| CCCCC(=O)N[C@@H]1CCCC[C@H]1N1Cc2ccc(-c3nnc(C(F)F)o3)cc2C1=O [Example 39, N-((1R,2R)-2-(6-(5-(difluoromethyl)-1,3,4-oxadiazol-2-yl)-1-oxo-1,3-dihydro-2H-isoindol-2-yl)cyclohexyl)pentanamide] | 96 |
| CC(F)(F)C(=O)N[C@@H]1CCCC[C@H]1N1Cc2ccc(-c3nnc(C(F)F)o3)cc2C1=O [Example 40, N-((1R,2R)-2-(6-(5-(difluoromethyl)-1,3,4-oxadiazol-2-yl)-1-oxo-1,3-dihydro-2H-isoindol-2-yl)cyclohexyl)-2,2-difluoropropanamide] | 100 |
| O=C1c2cc(-c3nnc(C(F)F)o3)ccc2CN1C[C@H]1CCCCN1S(=O)(=O)C1CC1 [Example 41, 2-(((2R)-1-(cyclopropylsulfonyl)piperidin-2-yl)methyl)-6-(5-(difluoromethyl)-1,3,4-oxadiazol-2-yl)isoindolin-1-one] | 98 |
| O=C1c2cc(-c3nnc(C(F)F)o3)ccc2CN1C[C@H]1CCCCN1C(=O)C1CC1 [Example 42, 2-(((2R)-1-(cyclopropylcarbonyl)piperidin-2-yl)methyl)-6-(5-(difluoromethyl)-1,3,4-oxadiazol-2-yl)isoindolin-1-one] | 98 |
| CC(C)OC(=O)N1CCCC[C@@H]1CN1Cc2ccc(-c3nnc(C(F)F)o3)cc2C1=O [Example 43, isopropyl (2R)-2-((6-(5-(difluoromethyl)-1,3,4-oxadiazol-2-yl)-1-oxo-1,3-dihydro-2H-isoindol-2-yl)methyl)piperidine-1-carboxylate] | 96 |
| O=C1c2cc(-c3nnc(C(F)F)o3)ccc2CN1C[C@H]1COCCN1S(=O)(=O)C1CC1 [Example 44, 2-(((3S)-4-(cyclopropylsulfonyl)morpholin-3-yl)methyl)-6-(5-(difluoromethyl)-1,3,4-oxadiazol-2-yl)isoindolin-1-one] | 100 |
